Structures can show the parent of a compound that is named as a salt.
Legend:
Assay type in all cases: cell-based, human
[1] = tested on: MCF-7 cells; experiment: Microviscosity of plasma membranes, DPHT fluorescence polarization; details: OEP inhibitor 8.7, 87, 870 μg/ml, doxorubicin 1 μM, cholesterol 100 μg/ml, Triton X-100 0.05%, 1 hour
Excerpt: (§1) A key physico-chemical characteristic of cell membranes that affects their physiological activity is microviscosity, a measure of lipid mobility in the bilayer, which plays an important role in membrane permeability and the functioning of membrane proteins. To assess the plasmalemma microviscosity, a fluorescent method is used, based on the use of a lipophilic indicator of diphenylhexatriene (DPHT), whose fluorescence depends on the cell membrane fluidity.
(§2) Cell suspension with a density of 2×10^6 cells/ml was incubated with DPHT at a final concentration of 1 μM for 30 minutes. Next, aliquots (10 μl) of OEP inhibitor solutions were added to the cell suspension using a multichannel dispenser to a final concentration of 8.7; 87 and 870 μg/ml, as well as doxorubicin at a concentration of 1 μM and its composition with an OEP inhibitor (DOX 1 μM+OEP inhibitor 8.7 μg/ml; DOX 1 μM+OEP inhibitor 87 μg/ml). […] Immediately after introducing aliquots of samples, the fluorescence polarization of DPHT was detected for 1 hour with an interval of 10 minutes.

[2] = tested on: MCF-7/Vin cells; experiment: as above; details: OEP inhibitor 8.7, 87, 870 μg/ml, doxorubicin 1 μM, cholesterol 100 μg/ml, Triton X-100 0.05%, 1 hour
Excerpt: as §1, §2

[3] = tested on: P-gp (ABCB1); experiment: Immunoblotting of P-gp (ABCB1) expression in MCF-7 cells; details: 48 hours, doxorubicin 3 μM, OEP inhibitor 261 μg/ml, composition 3 μM: 261 μg/ml
Protocol: MCF-7, MCF-7-ABCC1-DsRed (with over-expression of MRP-1), MCF-7-ABCC2-BFP (with over-expression of MRP-2), MCF-7-ABCB1-GFP (with P-gp over-expression) cells in concentrations of 3×10^4 cells/cm^2 were cultured in complete DMEM nutrient medium with either doxorubicin added to a final concentration of 3 μM; or an OEP inhibitor to a final concentration of 261 μg/ml; or doxorubicin-OEP inhibitor compositions to a final concentration of 3 μM: 261 μg/ml for 48 hours at 37° C. in the atmosphere of 5% CO2. An adapted and modified ABCAM protocol (http://www.abcam.com/ps/pdf/protocols/wb-beginner.pdf) was used to study proteins by immunoblotting (Western Blot). Monoclonal antibodies to ABCB1 (Cat. No. sc-13131, Santa Cruz) were used at a dilution of 1:200. Anti-mouse antibodies conjugated with HRP—(Cat. No ab6728, Abcam) at a dilution of 1:10,000 were used as secondary. Monoclonal antibodies to β-actin (Cat. No. mAbcam 8226, Abcam) were used at a dilution of 1:2000. The results of the analysis were visualized on ChemiDoc XRS+system (Bio-Rad).

Molecule | polarization of the fluorescence of DPHT (membrane microviscosity) [1] | polarization of the fluorescence of DPHT (membrane microviscosity) [2] | active glycosylated 190 kDa form of ABCB1, immunoblotting [3]
CC(C)CCC[C@@H](C)[C@H]1CC[C@H]2[C@@H]3CC=C4C[C@@H](O)CC[C@]4(C)[C@H]3CC[C@]12C [Cholesterol, cholesterol] | significantly increased | significantly increased | –
COc1cccc2c1C(=O)c1c(O)c3c(c(O)c1C2=O)C[C@@](O)(C(=O)CO)C[C@@H]3O[C@H]1C[C@H](N)[C@H](O)[C@H](C)O1 [doxorubicin, Doxorubicin (DOX) hydrochloride] | did not significantly change | did not significantly change | increases the amount of the active form
Triton X-100 | significant decrease | significant decrease | –

Source: patent US10987429B2, “Inhibitor of ATP-dependent cellular reverse transporters and method for producing same” (AO “TATKHIMFARMPREPARATY”, priority 2016, dated 2021)
